The values that follow come from US4080449A, “1,2,4,5-Tetrahydro-3H-2-benzazepin-3-ones” (U C B, Societe Anonyme, priority 1976, dated 1978).

“And” between values parts separate entries of the source, which are not always exact repeats. Equal values may be shown once. Some results are limits rather than exact numbers.

A short description of data set [1]: pharmacological properties of the compounds according to the present invention (Table III footnote, test not specified). It counts as in vivo.
Data set [2] is described as follows: LD50 determined intraperitoneally in the rat (Spearman-Karber). The conditions noted are these: in vivo, ip, intraperitoneal. The method, then: The LD50 doses were determined intraperitoneally in the rat and calculated by using the method of Spearman-Karber (D. J. Finney, Statistical Methods in Biological Assay, pub. Griffin & Co., London, 1952, p. 524).
Data set [3] relates to withdrawal reaction of a rat's paw. Kind of data set: active avoidance test (memory retention, paw pressure withdrawal). Format: in vivo. The following applies: for Stimulus initiating the avoidance reaction 24 hours after the first stimulation: s.c.; for minimal effective dose: sc, minimum dose which lowers the stimulus to below 110 g. The text has this: The principle of the active avoidance test, which has been developed in our laboratories and used for this purpose, may be described as follows: the withdrawal reaction of a rat's paw subjected to an increasing and measured pressure is observed. The pressure at which the withdrawal reaction is produced is called the reaction threshold. The latter is expressed in grams and thus corresponds to the minimum pressure which, when applied to the paw of the animals, causes withdrawal. It is read off directly from a scale of the apparatus used. […] Use is made of a minimum of 20 rats per test (10 treated rats and 10 control rats), the active dose being defined as the minimum dose which lowers the stimulus to below 110 g.

The subject of data set [4] is spinal fixation time. Description: spinal fixation test (elementary model of memory) after unilateral cerebellar lesion. The conditions noted are these: rat, i.p., 0.1 mmole/kg (A 17.5, B 22, C 23.7 mg/kg); spinal section 35 minutes after onset of asymmetry. It counts as in vivo. From the text: Action on the mnemic processes is shown particularly by the reduction in the time for spinal fixation, a test which has been described in the literature (see C. Giurgea and F. Mouravieff-Lesuisse, Arch. Int. Pharmacodyn, 191/2, (1971), 279) as an elementary model of memory which is endowed with a pharmacological reactivity in good correlation with clinical physiopathology. In the rat, after unilateral lesion of the cerebellum, there is a postural asymmetry of the hind paws. This asymmetry may persist, even after spinal section, if the animal has been in this situation for a sufficiently long time. This time, which is called the spinal fixation time, is 45 minutes under the experimental conditions. On the other hand, if spinal section is performed before the expiry of this period, for example 35 minutes after the onset of the asymmetry, the latter disappears. […] Conversely, any product which allows the rats to retain the asymmetry (thus achieving spinal fixation) when the spinal section is carried out after 35 minutes, is regarded as being active.
Under these conditions, administration of a compound according to the present invention, for example 2-methyl-1,2,4,5-tetrahydro-3H-2-benzazepin-3-one (compound A), 2-carbamoylmethyl-1,2,4,5-tetrahydro-3H-2-benzazepin-3-one (compound B) and 5-phenyl-1,2,4,5-tetrahydro-3H-2-benzazepin-3-one (compound C) produces the following effects: […]

The test system of data set [5] is lethality induced by a curarizing agent, oxydipentonium chloride (Brevatonal). Description: Brevatonal test (protection against lethality induced by oxydipentonium chloride, hypoxia). It counts as in vivo. The following applies: mice, i.p. The protocol: At the doses used, this curarizing agent brings about a respiratory depression which, in turn, brings about a hypoxi-hypercapnic syndrome. A compound capable of protecting the brain during this short period of hypoxia ensures survival. The compounds are administered to groups of 10 mice one hour before the injection of the curarizing agent; concurrently herewith, a control group of 10 mice is given a physiological salt solution prior to the curarizing agent. For each compound, the proportion of surviving mice is compared with the proportion of surviving control mice by the "Fisher exact probability test". This test, called the Brevatonal test, has also been developed in our laboratories.
Intraperitoneal administration (i.p.) of compounds according to the present invention, namely, 2-methyl-1,2,4,5-tetrahydro-3H-2-benzazepin-3-one (compound A), 2,4-dimethyl-1,2,4,5-tetrahydro-3H-2-benzazepin-3-one (compound G), 2-isobutyl-4-methyl-1,2,4,5-tetrahydro-3H-2-benzazepin-3-one(compound H), 7-chloro-2-methyl-1,2,4,5-tetrahydro-3H-2-benzazepin-3-one (compound J) 8-chloro-2-methyl-1,2,4,5-tetrahydro-3H-2-benzazepin-3-one (compound K) and 8-methyl-2-pentyl-1,2,4,5-tetrahydro-3H-2-benzazepin-3-one (compound L), produces under these conditions the effects set out in the following Table II.

Data set [6] relates to spinal fixation time. The following applies: rat, 30 mg/kg (0.2 millimole/kg), same conditions; C. Giurgea and F. Mouravieff-Lesuisse, loc.cit.; cited from earlier work.
Setting [7] is: 0.175 mg/kg, control (0 mg/kg) A 164, F 154.
Setting [8] is: 2 mg/kg (0.01 mmole/kg), control G 1/10, H 2/10.

For orientation: LD50 means the dose expected to kill half of the subjects tested. The term minimal effective dose denotes the smallest amount tested that counted as effective. Low readings indicate an effect from little substance, high ones a need for much substance.

Regarding `O=C1CCc2ccccc2CN1` [1,2,4,5-tetrahydro-3H-2-benzazepin-3-one], the “pharmacological properties of the compounds according to the present invention” value in data set [1] is “does not have th”.
In turn, `CN1Cc2ccccc2CCC1=O` [A, 2-methyl-1,2,4,5-tetrahydro-3H-2-benzazepin-3-one] returned an LD50 in data set [2] of 760 mg/kg. Moreover, the “Stimulus initiating the avoidance reaction 24 hours after the first stimulation” value worked out at 146 g in data set [3] (0.09 mg/kg, control (0 mg/kg) 164) and 106 g in data set [3] (setting [7]). For the same molecule, the minimal effective dose in data set [3] was 0.175 mg/kg and 1 µmol/kg. Also, the “spinal fixation after 35 minutes (animals with fixation)” value with spinal fixation time [4] is “three animals out of five”. This molecule also returned a Fisher exact probability in data set [5] (55 mg/kg (0.32 mmole/kg)) of under 0.005. The “Proportion of survivors, treated animals” value in data set [5] (55 mg/kg (0.32 mmole/kg), control 0/10) is listed as 7/10.
`NC(=O)CN1Cc2ccccc2CCC1=O` [B, 2-carbamoylmethyl-1,2,4,5-tetrahydro-3H-2-benzazepin-3-one]: in the data set with spinal fixation time [4], the “spinal fixation after 35 minutes (animals with fixation)” value is “two animals out of four”.
Same read-out and setting: then `O=C1CC(c2ccccc2)c2ccccc2CN1` (stereo not shown) [C, 5-phenyl-1,2,4,5-tetrahydro-3H-2-benzazepin-3-one], with “four animals out of five”.
Consider `COc1ccc2c(c1)CCC(=O)N(C)C2` [D, 7-methoxy-2-methyl-1,2,4,5-tetrahydro-3H-2-benzazepin-3-one], for which the “Stimulus initiating the avoidance reaction 24 hours after the first stimulation” value in data set [3] (0.205 mg/kg, control (0 mg/kg) 165) stood at 118 g; in data set [3] (1 mg/kg, control (0 mg/kg) 165), 90 g. Besides, in data set [3], the minimal effective dose is 1 mg/kg and 5 µmol/kg.
For `CCCCCN1Cc2ccccc2CC(C)C1=O` (stereo not shown) [E, 4-methyl-2-pentyl-1,2,4,5-tetrahydro-3H-2-benzazepin-3-one], the “Stimulus initiating the avoidance reaction 24 hours after the first stimulation” value is reported as 122 g in data set [3] (0.24 mg/kg, control (0 mg/kg) 166) and 89 g in data set [3] (0.49 mg/kg, control (0 mg/kg) 166). Further, in data set [3], the minimal effective dose was 0.49 mg/kg and 2 µmol/kg.
With `Cc1ccc2c(c1)CNC(=O)CC2` [F, 8-methyl-1,2,4,5-tetrahydro-3H-2-benzazepin-3-one], the “Stimulus initiating the avoidance reaction 24 hours after the first stimulation” value came out at 121 g in data set [3] (setting [7]); 111 g in data set [3] (0.35 mg/kg, control (0 mg/kg) 154); 101 g in data set [3] (0.87 mg/kg, control (0 mg/kg) 154). Moreover, the minimal effective dose in data set [3] was 0.87 mg/kg and 5 µmol/kg.
The molecule `CC1Cc2ccccc2CN(C)C1=O` (stereo not shown) [G, 2,4-dimethyl-1,2,4,5-tetrahydro-3H-2-benzazepin-3-one] yielded a Fisher exact probability in data set [5] (2 mg/kg (0.01 mmole/kg)) of under 0.05. The “Proportion of survivors, treated animals” value in data set [5] (setting [8]) is 6/10.
With `CC(C)CN1Cc2ccccc2CC(C)C1=O` (stereo not shown) [H, 2-isobutyl-4-methyl-1,2,4,5-tetrahydro-3H-2-benzazepin-3-one], the Fisher exact probability in data set [5] (2 mg/kg (0.01 mmole/kg)) is under 0.005; in data set [5] (7 mg/kg (0.032 mmole/kg)), under 0.05; in data set [5] (23 mg/kg (0.1 mmole/kg)), under 0.001. Also, the “Proportion of survivors, treated animals” value in data set [5] (setting [8]) is given as 9/10; in data set [5] (7 mg/kg (0.032 mmole/kg), control 2/10) it was 7/10; in data set [5] (23 mg/kg (0.1 mmole/kg), control 1/10), 9/10.
As to `CN1Cc2ccc(Cl)cc2CCC1=O` [J, 7-chloro-2-methyl-1,2,4,5-tetrahydro-3H-2-benzazepin-3-one], the Fisher exact probability was under 0.01 in data set [5] (21 mg/kg (0.1 mmole/kg)) and under 0.005 in data set [5] (66 mg/kg (0.32 mmole/kg)). Moreover, the “Proportion of survivors, treated animals” value in data set [5] (21 mg/kg (0.1 mmole/kg), control 1/10) is 7/10; in data set [5] (66 mg/kg (0.32 mmole/kg), control 1/10), 8/10.
On to `CN1Cc2cc(Cl)ccc2CCC1=O` [K, 8-chloro-2-methyl-1,2,4,5-tetrahydro-3H-2-benzazepin-3-one], for which the Fisher exact probability in data set [5] (21 mg/kg (0.12 mmole/kg as printed)) and in data set [5] (66 mg/kg (0.37 mmole/kg as printed)) was under 0.05 each time. Further, the “Proportion of survivors, treated animals” value in data set [5] (21 mg/kg (0.12 mmole/kg as printed), control 1/10) is reported as 6/10; in data set [5] (66 mg/kg (0.37 mmole/kg as printed), control 1/10), 6/10.
Turning to `CCCCCN1Cc2cc(C)ccc2CCC1=O` [L, 8-methyl-2-pentyl-1,2,4,5-tetrahydro-3H-2-benzazepin-3-one], the Fisher exact probability in data set [5] (78 mg/kg (0.32 mmole/kg)) is given as under 0.05. The “Proportion of survivors, treated animals” value in data set [5] (78 mg/kg (0.32 mmole/kg), control 0/5) was 6/10.
Turning to `NC(=O)CN1CCCC1=O` [piracetam, reference compound], the “spinal fixation (animals with fixation)” value in the data set on spinal fixation time [6] is “four animals out of nine”. For the same molecule, the “Stimulus initiating the avoidance reaction 24 hours after the first stimulation” value in data set [3] (1.5 mg/kg, control (0 mg/kg) 153) was 120 g; in data set [3] (3.5 mg/kg, control (0 mg/kg) 153) it was 90 g. For the same molecule, the minimal effective dose in data set [3] is 3.5 mg/kg and 25 µmol/kg. In addition, in data set [3] (tested 24 hours later, versus control animals, dose not given in sentence), the “retention in active avoidance test” value is “significant degree of retention”. The Fisher exact probability result was “not significant” in data set [5] (45 mg/kg (0.32 mmole/kg)), “not significant” in data set [5] (142 mg/kg (1 mmole/kg)) and under 0.005 in data set [5] (454 mg/kg (3.2 mmole/kg)). The “Proportion of survivors, treated animals” value in data set [5] (45 mg/kg (0.32 mmole/kg), control 0/10) is reported as 1/10; in data set [5] (142 mg/kg (1 mmole/kg), control 2/10) it was 4/10; in data set [5] (454 mg/kg (3.2 mmole/kg), control 1/10), 8/10.
